Experimental data: US7399462B2, “Protectant for UV-induced skin damage” (QLT USA, Inc., priority 2002, dated 2008)

Assays:
UV-induced tumors = details: topical; UV induced mouse carcinogenicity model; cited from earlier work
[1] = test system: UV-induced skin tumor formation

Row | SMILES | Formation of skin tumors compared to untreated or vehicle controls (UV-induced tumors) | Effect on Unbiased Median Weeks to Tumor (in words) ([1]; 600 RBU/week) | Tumor Potency Ratio (≧1 mm Tumor Size), Sexes Combined ([1]; UVR 600 RBU/week, sexes combined, calculated from Unbiased Median Week to Tumor and untreated 600/1200 RBU calibration)
1 | CC1=C(/C=C/C(C)=C/C=C/C(C)=C/C(=O)O)C(C)(C)CCC1 [tretinoin] | promote the formation of skin tumors |  | 
2 | O=C(OOC(=O)c1ccccc1)c1ccccc1 [Benzoyl peroxide] | promote the formation of skin tumors |  | 
3 | Nc1ccc(S(=O)(=O)c2ccc(N)cc2)cc1 [Dapsone, bis(4-aminophenyl)sulfone] |  | increased the Unbiased Median Weeks to Tumor in a dose-dependent manner | reduced with dapsone application in a dose-dependent manner
